Assay results from ChEMBL document CHEMBL4680307, “Potent leads based on CA-19L, an anti-HIV active HIV-1 capsid fragment” (Bioorg Med Chem, 2021).

Experiments:
[1] = test system: Human immunodeficiency virus 1; experiment: Antiviral activity against HIV-1 NL(AD8) in human PM1/CCR5 cells assessed as virus induced cytopathic effect incubated for 5 days by MTT assay; assay type: functional, organism-based; settings: Human immunodeficiency virus 1, NL(AD8), PM1/CCR5, 120 h
[2] = test system: Human immunodeficiency virus 1; experiment: Antiviral activity against HIV-1 NL4-3 in human MT-4 cells assessed as virus induced cytopathic effect incubated for 5 days by MTT assay; assay type: functional, organism-based; settings: Human immunodeficiency virus 1, NL4-3, MT4, 120 h
[3] = Cytotoxicity against in human MT-4 after 5 days by MTT assay; assay type: cell-based, MT4; settings: MT-4 cells, time 5 day
[4] = test system: Human immunodeficiency virus 1; experiment: Antiviral activity against HIV-1 NL4-3 in human MT-4 cells assessed as virus induced cytopathic effect at 25 uM incubated for 5 days by MTT assay; assay type: functional; settings: Human immunodeficiency virus 1, NL4-3, MT4, 120 h, time 5 day
[5] = test system: Human immunodeficiency virus 1; experiment: Antiviral activity against HIV-1 NL(AD8) in human PM1/CCR5 cells assessed as virus induced cytopathic effect at 50 uM incubated for 5 days by MTT assay; assay type: functional; settings: Human immunodeficiency virus 1, NL(AD8), PM1/CCR5, 120 h, time 5 day

## c1cc(CN2CCCNCCNCCCNCC2)ccc1CN1CCCNCCNCCCNCC1 [PLERIXAFOR]
[1]
  EC50: > 50 µM
[2]
  EC50: 0.049 µM
[3]
  CC50 at 120 h: > 50 µM

## CC[C@H](C)[C@H](NC(=O)[C@@H](NC(=O)[C@H](CCCCN)NC(=O)[C@H](CO)NC(=O)[C@H](CC(=O)O)NC(=O)[C@@H]1CCCN1C(=O)[C@H](CC(N)=O)NC(=O)[C@H](C)NC(=O)[C@H](CC(N)=O)NC(=O)[C@H](CCC(N)=O)NC(=O)[C@@H](NC(=O)[C@H](CC(C)C)NC(=O)[C@H](CC(C)C)NC(=O)[C@@H](NC(=O)[C@H](CCC(=O)O)NC(=O)[C@@H](NC(=O)[C@H](CCSC)NC(=O)[C@H](Cc1c[nH]c2ccccc12)NC(=O)[C@H](CC(N)=O)NC(=O)[C@H](CCCCN)NC(=O)[C@@H](NC(=O)[C@H](CCC(=O)O)NC(=O)[C@H](CCC(N)=O)NC(=O)[C@H](CO)NC(C)=O)C(C)C)[C@@H](C)O)[C@@H](C)O)C(C)C)[C@@H](C)O)C(=O)N[C@@H](CC(C)C)C(=O)N[C@@H](CCCCN)C(=O)N[C@@H](C)C(=O)N[C@@H](CC(C)C)C(=O)NCC(=O)N1CCC[C@H]1C(=O)NCC(=O)N[C@@H](C)C(=O)N[C@H](C(=O)NCC(=O)N[C@@H](CSCC(=O)N[C@@H](CCCNC(=N)N)C(=O)N[C@@H](CCCNC(=N)N)C(=O)N[C@@H](CCCNC(=N)N)C(=O)N[C@@H](CCCNC(=N)N)C(=O)N[C@@H](CCCNC(=N)N)C(=O)N[C@@H](CCCNC(=N)N)C(=O)N[C@@H](CCCNC(=N)N)C(=O)N[C@@H](CCCNC(=N)N)C(N)=O)C(N)=O)[C@@H](C)O
[1]
  EC50: 50 µM
[2]
  EC50: 22 µM
[3]
  CC50 at 120 h: > 50 µM

## CSCC[C@H](NC(=O)[C@H](Cc1c[nH]c2ccccc12)NC(=O)[C@H](CC(N)=O)NC(=O)[C@H](CCCCN)NC(=O)[C@@H](NC(C)=O)C(C)C)C(=O)N[C@H](C(=O)N[C@@H](CCC(=O)O)C(=O)N[C@H](C(=O)N[C@@H](CC(C)C)C(=O)N[C@@H](CC(C)C)C(=O)N[C@H](C(=O)N[C@@H](CCC(N)=O)C(=O)N[C@@H](CC(N)=O)C(=O)N[C@@H](C)C(=O)N[C@@H](CC(N)=O)C(=O)NCC(=O)N[C@@H](CSCC(=O)N[C@@H](CCCNC(=N)N)C(=O)N[C@@H](CCCNC(=N)N)C(=O)N[C@@H](CCCNC(=N)N)C(=O)N[C@@H](CCCNC(=N)N)C(=O)N[C@@H](CCCNC(=N)N)C(=O)N[C@@H](CCCNC(=N)N)C(=O)N[C@@H](CCCNC(=N)N)C(=O)N[C@@H](CCCNC(=N)N)C(N)=O)C(N)=O)C(C)C)[C@@H](C)O)[C@@H](C)O
[4]
  inhibition at 25 µM: 27%
[5]
  inhibition at 50 µM: 40%
[1]
  EC50: 50 µM
[2]
  EC50: > 50 µM
[3]
  CC50 at 120 h: > 50 µM

## COC[C@@H](c1ccc(C(F)(F)F)cc1)N1CCN(C2(C)CCN(C(=O)c3c(C)ncnc3C)CC2)C[C@@H]1C [VICRIVIROC]
[1]
  EC50: 0.21 µM
[2]
  EC50: > 5 µM
[3]
  CC50 at 120 h: > 5 µM

## Cc1cn([C@H]2C[C@H](N=[N+]=[N-])[C@@H](CO)O2)c(=O)[nH]c1=O [ZIDOVUDINE]
[1]
  EC50: 3.3 µM
[2]
  EC50: 0.094 µM
[3]
  CC50 at 120 h: 74 µM

## CC[C@H](C)[C@H](NC(=O)[C@@H](NC(=O)[C@H](CCCCN)NC(=O)[C@H](CO)NC(=O)[C@H](CC(=O)O)NC(=O)[C@@H]1CCCN1C(=O)[C@H](CC(N)=O)NC(=O)[C@H](C)NC(=O)[C@H](CC(N)=O)NC(=O)[C@H](CCC(N)=O)NC(=O)[C@@H](NC(=O)[C@H](CC(C)C)NC(=O)[C@H](CC(C)C)NC(=O)[C@@H](NC(=O)[C@H](CCC(=O)O)NC(=O)[C@@H](NC(=O)[C@H](CCSC)NC(=O)[C@H](Cc1c[nH]c2ccccc12)NC(=O)[C@H](CC(N)=O)NC(=O)[C@H](CCCCN)NC(=O)[C@@H](NC(=O)[C@H](CCC(=O)O)NC(=O)[C@H](CCC(N)=O)NC(=O)[C@H](CO)NC(C)=O)C(C)C)[C@@H](C)O)[C@@H](C)O)C(C)C)[C@@H](C)O)C(=O)N[C@@H](CC(C)C)C(=O)N[C@@H](CCCCN)C(=O)N[C@@H](C)C(=O)N[C@@H](CC(C)C)C(=O)NCC(=O)N[C@@H](CSCC(=O)N[C@@H](CCCNC(=N)N)C(=O)N[C@@H](CCCNC(=N)N)C(=O)N[C@@H](CCCNC(=N)N)C(=O)N[C@@H](CCCNC(=N)N)C(=O)N[C@@H](CCCNC(=N)N)C(=O)N[C@@H](CCCNC(=N)N)C(=O)N[C@@H](CCCNC(=N)N)C(=O)N[C@@H](CCCNC(=N)N)C(N)=O)C(N)=O
[4]
  inhibition at 25 µM: 39%
[1]
  EC50: 50 µM
[2]
  EC50: > 25 µM
[3]
  CC50 at 120 h: 21 µM
